Experimental data taken from patent publication US10604487B2, “Pyridinol derivative or pharmaceutically acceptable salt thereof, and pharmaceutical composition containing same as active ingredient” (Research Cooperation Foundation of Yeungnam University, priority 2016, dated 2020).

Assays:
[1] = system: TNF-α-induced adhesion of monocytes to intestinal epithelial cells; test: Inhibitory activity against TNF-α-induced adhesion of monocytes (U937) to intestinal epithelial cells (HT-29); assay type: cell-based, human; settings: Homo sapiens, 1 μM test drug; HT-29/U937 adhesion, 10 ng/mL TNF-α; read-out: Inhibitory activity (%)
Method: HT-29 human colorectal cancer-derived epithelial cells and U937 human-derived monocytic cells were cultured in an RPMI 1640 medium containing 10% FBS and 1% penicillin/streptomycin (PS) at 37° C. under a condition of 5% CO2, and when the cells were grown to 80% or more in a culture flask, they were subcultured in a ratio of 1:3 to be used in this test. The HT-29 cells were cultured in a 24-well plate at a concentration of 2×10^5 cells/cm2, and then the medium only containing 1% FBS and 1% PS was pretreated with a test drug for 1 hour. Afterward, BCECF-loaded U937 cells by being treated with 10 μg/mL of BCECF-AM at 37° C. for 30 minutes and 10 ng/mL of TNF-α reacted with the HT-29 cells previously treated with the test drug at 37° C. for 3 hours. After the reaction, the medium was removed, and then the cells were washed with PBS twice to remove U937 cells that were not adhered. In a subsequent step, for cell lysis, 0.1% Triton X-100 (0.1 M Tris) was treated to allow a reaction at room temperature for 30 minutes, and then fluorescence was measured using a Fluostar optima microplate reader (BMG LABTECH, Germany) to quantify the cells (Carvalho et al., 1996; Thapa et al., 2008).

[2] = Cytotoxicity test (MTT), HT-29; assay type: cell-based; settings: human, HT-29, 48 h; for viability at 48 h, 0.01 µM / viability at 48 h, 0.1 µM / viability at 48 h, 1 µM / viability at 48 h, 10 µM / viability at 48 h, 100 µM: HT-29 cells (colorectal cancer cell line), read-out: Cell viability (% of control); for IC50 at 48 h: HT-29 cells, read-out: IC50 (μM), cytotoxicity
Method: (§1) The human colorectal cancer cell line HT-29 and the monocytic blood cancer-derived cell line U937 were cultured in a RPMI 1640 medium containing 10% FBS and 1% penicillin/streptomycin (PS) at 37° C. under a condition of 5% CO2, and when the cells used herein were grown to 80% or more, they were subcultured at a ratio of 1:3.
(§2) Each type of cells were cultured in a 96 well plate at a concentration of 1×10^5 cells/cm2, treated with a test compound by concentration in a medium only containing 1% FBS and 1% PS at 37° C. under a condition of 5% CO2 for 48 hours and reacted with 5 mg/mL of a 3-[4,5-dimethylthiazol-2-yl]-2,5-diphenyltetrazolium bromide (MTT) reagent for 4 hours, and then the medium was completely removed, the cells were treated with DMSO, formazan crystals were dissolved for 30 minutes, and then absorbance was measured at 540 nm.

[3] = Cytotoxicity test (MTT), U937; assay type: cell-based; settings: human, U937, 48 h; for viability at 48 h, 0.01 µM / viability at 48 h, 0.1 µM / viability at 48 h, 1 µM / viability at 48 h, 10 µM / viability at 48 h, 100 µM: U937 cells (monocytic blood cancer-derived cell line), read-out: Cell viability (% of control); for IC50 at 48 h: U937 cells
Method: as §1, §2

Row | SMILES | inhibition at 1 µM [1] | viability at 48 h, 0.01 µM [2] | viability at 48 h, 0.1 µM [2] | viability at 48 h, 1 µM [2] | viability at 48 h, 10 µM [2] | viability at 48 h, 100 µM [2] | IC50 at 48 h [2] | viability at 48 h, 0.01 µM [3] | viability at 48 h, 0.1 µM [3] | viability at 48 h, 1 µM [3] | viability at 48 h, 10 µM [3] | viability at 48 h, 100 µM [3] | IC50 at 48 h [3]
1 | Cc1nc(NC(=S)Nc2ccccc2)c(C)c(C)c1O [Compound 18-4, 1-(5-hydroxy-3,4,6-trimethylpyridin-2-yl)-3-phenylthiourea] | 49.7% | 96.6 ± 2.1% | 97 ± 4.4% | 99 ± 5% | 96.6 ± 2.4% | 76 ± 4.9% | > 100 µM | 99.5 ± 2.1% | 101 ± 1.9% | 96.7 ± 1.7% | 96.1 ± 1.4% | 70.6 ± 0.8% | > 100 µM
2 | Cc1nc(NC(=S)Nc2ccc(Cl)cc2)c(C)c(C)c1O [Compound 18-6, 1-(4-chlorophenyl)-3-(5-hydroxy-3,4,6-trimethylpyridin-2-yl)thiourea] | ≥ 50% | 95.2 ± 3.2% | 86.6 ± 4.9% | 83.6 ± 3.3% | 72.8 ± 2.8% | 65.3 ± 1.9% | > 100 µM | 99.6 ± 0.5% | 96.8 ± 1.9% | 91.6 ± 2.6% | 86.4 ± 1.7% | 80.7 ± 2.5% | > 100 µM
3 | COC(=O)Nc1nc(C)c(O)c(C)c1C [Compound 20-1, methyl (5-hydroxy-3,4,6-trimethylpyridin-2-yl)carbamate] | 9.8% | 89.7 ± 6.3% | 84.9 ± 1.9% | 85 ± 3.4% | 82.6 ± 1.3% | 73.7 ± 4.5% | > 100 µM | 97.5 ± 1.6% | 95.1 ± 5.3% | 93.7 ± 1.2% | 80.9 ± 12.8% | 89.6 ± 1% | > 100 µM
4 | CCCCOC(=O)Nc1nc(C)c(O)c(C)c1C [Compound 20-2, butyl (5-hydroxy-3,4,6-trimethylpyridin-2-yl)carbamate] | 26.9% | 102 ± 1.4% | 102 ± 3.2% | 98.1 ± 3.4% | 98.3 ± 3.8% | 67.6 ± 1.9% | > 100 µM | 87.4 ± 1.3% | 84.4 ± 2.3% | 84.6 ± 2% | 80.7 ± 0.8% | 74.4 ± 3.8% | > 100 µM
5 | Cc1nc(NC(=O)OCC(C)C)c(C)c(C)c1O [Compound 20-3, isobutyl (5-hydroxy-3,4,6-trimethylpyridin-2-yl)carbamate] | 6% | 101 ± 1.9% | 91 ± 3.6% | 93.3 ± 4.7% | 83.7 ± 3.3% | 71.2 ± 3.4% | > 100 µM | 86.3 ± 0.4% | 86.3 ± 0.9% | 80.9 ± 2.1% | 82.2 ± 0.5% | 72.5 ± 1.9% | > 100 µM
6 | Cc1nc(NC(=O)OCCCl)c(C)c(C)c1O [Compound 20-4, 2-Chloroethyl (5-hydroxy-3,4,6-trimethylpyridin-2-yl)carbamate] | -1.5% | 97.4 ± 2.2% | 94.7 ± 3.3% | 88.6 ± 2.2% | 90.2 ± 5.3% | 86.7 ± 3.1% | > 100 µM | 86.1 ± 3.1% | 82.7 ± 1% | 83.4 ± 1.3% | 83 ± 0.5% | 79.2 ± 1.3% | > 100 µM
